# Data reported in paper PMC3735939, “The low levels of eicosapentaenoic acid in rat brain phospholipids are maintained via multiple redundant mechanisms” (Journal of Lipid Research, 2013).
# “And” between values parts separate entries of the source, which are not always exact repeats. Identical values can stand only once.
# Tests used:
# [1] = Identification of radiolabeled FAs in brain phospholipids by HPLC and LSC after 14C-EPA infusion; type: in vivo, rat; conditions: for percent of total radiolabeled FAs: brain total phospholipids;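 for radiolabeled FA composition: percent of radiolabeled FAs within each phospholipid class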
# Description: (§1) Twenty-four hours postsurgery, a second catheter (iv catheter 24 gauge/0.75 inch, Angiocath™; Becton Dickinson) was implanted into the tail vein where rats received either vehicle or 10 mg/kg of MEP. Ten minutes post injection of vehicle or MEP, the tail vein catheter was connected to a syringe containing radiolabeled ^14C-palmitate (n = 8), ^14C-DHA (n = 6), or ^14C-EPA (n = 7) attached to a computer-controlled variable speed pump (PHD 22/2000; Harvard Apparatus, Holliston, MA). […] Each rat received a dose of 76 μCi ^14C-palmitate, 76 μCi ^14C-DHA, or 78 μCi ^14C-EPA. […] The radiotracer infusions continued until rats were euthanized. The brain was excised and cut sagittally. Both hemispheres were stored at −80°C for radioactive and biochemical analyses. Plasma was isolated from whole blood via microcentrifugation at 6,200 rpm (2,000 g) for 5 min and stored at −80°C. Total lipids from one brain hemisphere and from plasma were extracted by the method of Folch, Lees, and Sloane Stanley ([39]). Isolation of various neutral lipid and phospholipid classes from the total lipid extract was previously described by Chen, Liu, and Bazinet ([6]). FA methyl esters and radioactive acyl-CoA analysis were previously described by Chen, Liu, and Bazinet ([6]).
# [2] = tested on: mitochondrial FA β-oxidation; experiment: Radioactivity in brain aqueous fraction (marker of β-oxidation) after 5 min intravenous 14C-tracer infusion; type: in vivo, rat; conditions: vehicle injection; 5 min iv infusion of tracer
# Description: as §1, with “([6]).” for “([6]). FA methyl esters and radioactive acyl-CoA analysis were previously described by Chen, Liu, and Bazinet ([6]).”
# [3] = Radioactivity in brain lipid fractions after 5 min intravenous 14C-tracer infusion (TLC, LSC); type: in vivo, rat; conditions: for total radioactivity in brain total phospholipids: not adjusted for percent composition of 14C-EPA; for esterification of radiolabeled FA into brain total phospholipids: 14C-EPA-infused rats
# Description: as §1
# [4] = cited from earlier work
# [5] = In vivo kinetics of FA incorporation and turnover in brain phospholipids (intravenous radiotracer infusion, kinetic model); design: species or system rat
# Description: Twenty-four hours postsurgery, a second catheter (iv catheter 24 gauge/0.75 inch, Angiocath™; Becton Dickinson) was implanted into the tail vein where rats received either vehicle or 10 mg/kg of MEP. […] The radiotracers were infused for 5 min via the tail vein catheter at a rate of 0.223(1 + e^−19.2t) ml/min (t is infusion time in minutes) ([37]) which achieves a steady-state plasma radioactivity within 1 min ([18], [38]). […] During the 5 min infusion, blood samples were collected from the jugular vein at approximately 0, 0.25, 0.5, 0.75, 1.5, 3, 4, and 5 min while the unanesthetized rat was mobile in the infusion box with food and water. […] After 5 min, the rats were rapidly euthanized by head-focused high-energy microwave irradiation (13.5 kW for 1.6 s; Cober Electronics Inc., Stratford, CT). The radiotracer infusions continued until rats were euthanized. The brain was excised and cut sagittally. Both hemispheres were stored at −80°C for radioactive and biochemical analyses. Plasma was isolated from whole blood via microcentrifugation at 6,200 rpm (2,000 g) for 5 min and stored at −80°C.
# The model for in vivo kinetics of brain FAs in rats has been previously described ([17], [18], [21], [23], [25], [37], [41]).
# Because the infusion is 5 min, contributions of FA from de novo synthesis and esterified plasma FA are negligible ([18], [20], [23], [41]); thus only contributions from plasma unesterified FAs and acyl-CoA pools were considered in the calculation of λpalmitate, DHA, or EPA .
smiles,measurement,setting,value
"CC/C=C\C/C=C\C/C=C\C/C=C\C/C=C\CCCC(=O)O [EPA, eicosapentaenoic acid]",radiolabeled FA composition,"[1]; ChoGpl, MEP-treated rats",66%
same,radiolabeled FA composition,"[1]; ChoGpl, vehicle-treated rats",65%
same,radiolabeled FA composition,"[1]; EtnGpl, MEP-treated rats",25%
same,radiolabeled FA composition,"[1]; EtnGpl, vehicle-treated rats",24%
same,radiolabeled FA composition,"[1]; PtdIns, MEP-treated rats",65%
same,radiolabeled FA composition,"[1]; PtdIns, vehicle-treated rats",66%
same,radiolabeled FA composition,"[1]; PtdSer, MEP-treated rats",54%
same,radiolabeled FA composition,"[1]; PtdSer, vehicle-treated rats",44%
same,percent of total radiolabeled FAs,[1]; MEP-treated rats,56%
same,percent of total radiolabeled FAs,[1]; vehicle-treated rats,62%
same,radioactivity of brain aqueous fraction,[2],21 nCi/g brain
same,total radioactivity in brain total phospholipids,[3]; MEP,22 ± 0.6 nCi/g brain
same,total radioactivity in brain total phospholipids,[3]; vehicle,17 ± 0.9 nCi/g brain
same,Jout net rate of loss from brain phospholipids,[4],16 nmol/g/day
same,loss t1/2 from brain phospholipids,[4],120 h
same,rate of loss from brain phospholipids,[4],14 % per day
same,FFA rate of turnover,"[5]; ChoGpl, MEP",28 ± 4.5 %/day
same,JFA net incorporation rate from brain acyl-CoA,"[5]; ChoGpl, MEP",16 ± 2.3 nmol/g/day
same,Jin net incorporation rate from plasma unesterified FA,"[5]; ChoGpl, MEP",3.7 ± 0.31^! nmol/g/day
same,FFA rate of turnover,"[5]; ChoGpl, Vehicle",46 ± 6.9 %/day
same,JFA net incorporation rate from brain acyl-CoA,"[5]; ChoGpl, Vehicle",23 ± 3.3 nmol/g/day
same,Jin net incorporation rate from plasma unesterified FA,"[5]; ChoGpl, Vehicle",2.8 ± 0.55 nmol/g/day
same,FFA rate of turnover,"[5]; EtnGpl, MEP",9.5 ± 3.3 %/day
same,JFA net incorporation rate from brain acyl-CoA,"[5]; EtnGpl, MEP",5.4 ± 1.4 nmol/g/day
same,Jin net incorporation rate from plasma unesterified FA,"[5]; EtnGpl, MEP",1.2 ± 0.17 nmol/g/day
same,FFA rate of turnover,"[5]; EtnGpl, Vehicle",8.4 ± 0.81 %/day
same,JFA net incorporation rate from brain acyl-CoA,"[5]; EtnGpl, Vehicle",6.4 ± 1.3 nmol/g/day
same,Jin net incorporation rate from plasma unesterified FA,"[5]; EtnGpl, Vehicle",0.78 ± 0.19 nmol/g/day
same,λ dilution factor,[5]; MEP,0.24 ± 0.022
same,FFA rate of turnover,"[5]; PtdIns, MEP",17 ± 6.6 %/day
same,JFA net incorporation rate from brain acyl-CoA,"[5]; PtdIns, MEP",3.0 ± 1.4 nmol/g/day
same,Jin net incorporation rate from plasma unesterified FA,"[5]; PtdIns, MEP",0.73 ± 0.41 nmol/g/day
same,FFA rate of turnover,"[5]; PtdIns, Vehicle",24 ± 1.7 %/day
same,JFA net incorporation rate from brain acyl-CoA,"[5]; PtdIns, Vehicle",4.5 ± 0.2 nmol/g/day
same,Jin net incorporation rate from plasma unesterified FA,"[5]; PtdIns, Vehicle",0.52 ± 0.087 nmol/g/day
same,FFA rate of turnover,"[5]; PtdSer, MEP",3.1 ± 0.43 %/day
same,JFA net incorporation rate from brain acyl-CoA,"[5]; PtdSer, MEP",1.2 ± 0.13 nmol/g/day
same,Jin net incorporation rate from plasma unesterified FA,"[5]; PtdSer, MEP",0.29 ± 0.057 nmol/g/day
same,FFA rate of turnover,"[5]; PtdSer, Vehicle",3.1 ± 0.56 %/day
same,JFA net incorporation rate from brain acyl-CoA,"[5]; PtdSer, Vehicle",1.4 ± 0.36 nmol/g/day
same,Jin net incorporation rate from plasma unesterified FA,"[5]; PtdSer, Vehicle",0.17 ± 0.055 nmol/g/day
same,FFA rate of turnover,"[5]; Total PL, MEP",17 ± 2.3 %/day
same,JFA net incorporation rate from brain acyl-CoA,"[5]; Total PL, MEP",31 ± 4.8 nmol/g/day
same,Jin net incorporation rate from plasma unesterified FA,"[5]; Total PL, MEP",7.3 ± 0.7^! nmol/g/day
same,FFA rate of turnover,"[5]; Total PL, Vehicle",21 %/day and 21 ± 2.9 %/day
same,JFA net incorporation rate from brain acyl-CoA,"[5]; Total PL, Vehicle",47 ± 5.7 nmol/g/day
same,Jin net incorporation rate from plasma unesterified FA,"[5]; Total PL, Vehicle",5.7 nmol/g/day and 5.7 ± 1.1 nmol/g/day
same,Jin as percent of the Jout,"[5]; rat, in vivo",36%
same,"recycling into brain phospholipids, fold lower than DHA","[5]; rat, in vivo",154 fold
same,λ dilution factor,[5]; vehicle,0.12 ± 0.014 and 0.12 ± 0.01
"CCCCCCCCCCCCCCCC(=O)O [Palmitate, [1-14C]palmitate]",radiolabeled FA composition,"[1]; ChoGpl, MEP-treated rats",3%
same,radiolabeled FA composition,"[1]; ChoGpl, vehicle-treated rats",6%
same,percent of total radiolabeled FAs,[1]; MEP-treated rats,2%
same,percent of total radiolabeled FAs,[1]; vehicle-treated rats,4%
same,radioactivity of brain aqueous fraction,[2],17 nCi/g brain
same,Jout net rate of loss from brain phospholipids,[4],469 nmol/g/day
same,rate of loss from brain phospholipids,[4],2 % per day
same,FFA rate of turnover,"[5]; ChoGpl, MEP",53 ± 13 %/day
same,JFA net incorporation rate from brain acyl-CoA,"[5]; ChoGpl, MEP","12,720 ± 3,120 nmol/g/day"
same,FFA rate of turnover,"[5]; ChoGpl, Vehicle",84 ± 33 %/day
same,JFA net incorporation rate from brain acyl-CoA,"[5]; ChoGpl, Vehicle","20,713 ± 9,692 nmol/g/day"
same,FFA rate of turnover,"[5]; EtnGpl, MEP",110 ± 37 %/day
same,JFA net incorporation rate from brain acyl-CoA,"[5]; EtnGpl, MEP","3,062 ± 1,011 nmol/g/day"
same,FFA rate of turnover,"[5]; EtnGpl, Vehicle",161 ± 66 %/day
same,JFA net incorporation rate from brain acyl-CoA,"[5]; EtnGpl, Vehicle","4,926 ± 2,623 nmol/g/day"
same,Jin into diacylglycerol,[5]; MEP,238 ± 34 nmol/g/day
same,Jin into triacylglycerol,[5]; MEP,276 ± 19 nmol/g/day
same,FFA rate of turnover,"[5]; PtdIns, MEP",311 ± 135 %/day
same,JFA net incorporation rate from brain acyl-CoA,"[5]; PtdIns, MEP","2,443 ± 1,153 nmol/g/day"
same,FFA rate of turnover,"[5]; PtdIns, Vehicle",292 ± 80 %/day
same,JFA net incorporation rate from brain acyl-CoA,"[5]; PtdIns, Vehicle","2,679 ± 1,655 nmol/g/day"
same,FFA rate of turnover,"[5]; PtdSer, MEP",261 ± 194 %/day
same,JFA net incorporation rate from brain acyl-CoA,"[5]; PtdSer, MEP",849 ± 562 nmol/g/day
same,FFA rate of turnover,"[5]; PtdSer, Vehicle",356 ± 259 %/day
same,JFA net incorporation rate from brain acyl-CoA,"[5]; PtdSer, Vehicle","1,253 ± 792 nmol/g/day"
same,FFA rate of turnover,"[5]; Total PL, MEP",80 ± 30 %/day
same,JFA net incorporation rate from brain acyl-CoA,"[5]; Total PL, MEP","19,285 ± 6,630 nmol/g/day"
same,FFA rate of turnover,"[5]; Total PL, Vehicle",127 ± 57 %/day
same,JFA net incorporation rate from brain acyl-CoA,"[5]; Total PL, Vehicle","32,728 ± 17,692 nmol/g/day"
same,Jin into diacylglycerol,[5]; vehicle,106 ± 19 nmol/g/day
same,Jin into triacylglycerol,[5]; vehicle,140 ± 23 nmol/g/day
"CC/C=C\C/C=C\C/C=C\C/C=C\C/C=C\CCCCCC(=O)O [n-3 DPA, n-3 docosapentaenoic acid]",radiolabeled FA composition,"[1]; ChoGpl, MEP-treated rats",26%
same,radiolabeled FA composition,"[1]; ChoGpl, vehicle-treated rats",18%
same,radiolabeled FA composition,"[1]; EtnGpl, MEP-treated rats",61%
same,radiolabeled FA composition,"[1]; EtnGpl, vehicle-treated rats",47%
same,percent of total radiolabeled FAs,[1]; MEP-treated rats,38%
same,percent of total radiolabeled FAs,[1]; vehicle-treated rats,24%
same,esterification of radiolabeled FA into brain total phospholipids,[3]; MEP,8.3 ± 0.2 nCi/g brain
same,esterification of radiolabeled FA into brain total phospholipids,[3]; vehicle,4.1 ± 0.2 nCi/g brain
